The target of assay [1] is Ba/F3 EML4-ALK v1 I1171N/D1203N (Homo sapiens (Human), UniProt Q9HC35+Q9UM73, D1203N/I1171N). Briefly: Ba/F3 cell proliferation assay, EML4-ALK v1 I1171N/D1203N. It counts as cell-based. To be noted: for pIC50: Ba/F3 stable cells, 72 hours, CellTiter-Glo. Summed up:
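Viability read by CellTiter-Glo luminescence after 72 h exposure to a 3-fold compound dilution series, with IC50 from four-parameter logistic regression. Cells were Ba/F3 rendered IL-3-independent through retroviral expression of EML4-ALK v1 I1171N/D1203N, puromycin-selected.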
A general note: In ATP-based viability assays light output follows the ATP content of the culture.

Assay [2] has as its target Ba/F3 EML4-ALK v1 I1171N (Homo sapiens (Human), UniProt Q9HC35+Q9UM73, I1171N). As to the kind of experiment: Ba/F3 cell proliferation assay, EML4-ALK v1 I1171N. The conditions noted are these: for pIC50: Ba/F3 stable cells, 72 hours, CellTiter-Glo; for ETV6-TRKB / EML4-ALK v1 I1171N: TRKB selectivity, ratio of Ba/F3 IC50 values. It is filed as cell-based. Summed up: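 Ba/F3 cells stably transformed with retroviral EML4-ALK v1 I1171N, selected by IL-3 withdrawal and puromycin, grown IL-3-free. Compounds added as 3-fold dilution series, 72 h incubation; viability by CellTiter-Glo luminescence. IC50 from percent inhibition by four-parameter logistic fit, binned A/B/C.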

The target in assay [3] is ALK I1171N/D1203N (Homo sapiens (Human), UniProt Q9UM73, D1203N/I1171N). As to the kind of experiment: Biochemical kinase assay, ALK I1171N/D1203N. To be noted: apparent inhibitory constant, kinase domain, Morrison equation; read-out: ALK-I1171N-D1203N Ki^app. A digest of the protocol: (§1)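 Kinase domains (in enzyme solution: ALK I1171N/D1203N 4 nM, ROS1 0.6 nM, ROS1-G2032R 0.5 nM, TRKB 1.5 nM) were mixed with substrate solution holding 2 mM ATP and 26 μM AQT0101 (ALK, ROS1) or AQT0104 (TRKB). Initial rates from 120-min fluorescence kinetics at 30 °C were fitted to the Morrison equation (Ki^app).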

Assay [4] deals with Ba/F3 ETV6-TRKB (Homo sapiens, UniProt Q16620). Briefly: Ba/F3 cell proliferation assay, ETV6-TRKB. It counts as cell-based. A digest of the protocol:
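Growth inhibition after 72 h compound exposure (3-fold series) was measured by CellTiter-Glo in IL-3-independent Ba/F3 cells stably expressing ETV6-TRKB. A four-parameter logistic fit of percent inhibition versus concentration gave IC50.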

Assay [5] deals with ROS1-G2032R (Homo sapiens (Human), UniProt P08922, G2032R). Briefly: Biochemical kinase assay, ROS1-G2032R. To be noted: apparent inhibitory constant, kinase domain, Morrison equation; read-out: ROS1-G2032R Ki^app. How it is done: (§2) First, 250 nL of compound dissolved in DMSO (100-fold of the desired concentration) was dispensed into a 384-well plate. A 12.5 μL substrate solution containing ATP (2 mM) and fluorogenic phosphorylation substrate AQT0101 ([…] for ALK and ROS, AssayQuant) or AQT0104 (26 μM for TRKB, AssayQuant) in buffer (50 mM HEPES pH 7.5, […], 0.5 mM EGTA, 10 mM MgCl2) was added and mixed thoroughly. Then, a 12.5 μL kinase solution containing ALK (1.5 nM, Carna, 08-518), ALK I1171N/D1203N (4 nM, SignalChem, custom-made), ROS1 (0.6 nM, Carma, 08-163), ROS1-G2032R (0.5 nM, SignalChem, R14-121BG), or TRKB-wt (1.5 nM, SignalChem, N17-11G) kinase domains in buffer ([…] pH 7.5, 0.01% Brij-[…], 0.4 mg/mL BSA, 0.5 mM EGTA, and 10 mM MgCl2) was added and mixed thoroughly. The plate was sealed and read by SpectraMax Paradigm at λ=485 nm every 2 minutes for 120 minutes at 30° C. Initial rates of reaction (v) were calculated from the change in fluorescence intensity over time during the initial, linear portion of the reaction. Finally, apparent inhibitory constants (Ki^app) were determined from regression of v and I (inhibitor concentration) to Morrison Equation (E=enzyme concentration): […]
(§3) Compound potency can be interpreted by binning Ki^app values against the targets: bin A for high potency, Ki^app<50 nM; bin B for medium potency, 50 nM≤Ki^app<500 nM; and bin C for low potency, Ki^app≥500 nM. […] “nd” means not determined.

The target of assay [6] is TRKB-wt (Homo sapiens (Human), UniProt Q16620). As to the kind of experiment: Biochemical kinase assay, TRKB-wt. The conditions noted are these: apparent inhibitory constant, kinase domain, Morrison equation; read-out: TRKB-wt Ki^app. A digest of the protocol:
as §1

Assay [7] concerns the target ROS1 (Homo sapiens (Human), UniProt P08922). Briefly: Biochemical kinase assay, ROS1-wt. The conditions noted are these: apparent inhibitory constant, kinase domain, Morrison equation; read-out: ROS1-wt Ki^app. How it is done:
as §2, §3

Where [8] appears, read: TRKB selectivity, ratio of Ba/F3 IC50 values.
Where [9] appears, read: Ba/F3 stable cells, 72 hours, CellTiter-Glo; read-out: ETV6-TRKB IC50.

This note sets out measurements from US20250326769A1, “HETEROAROMATIC MACROCYCLIC ETHER CHEMOTHERAPEUTIC AGENTS” (Nuvalent, Inc., priority 2022, published 2025).

pIC50, pKi: −log10 of the molar value. Read-outs that look alike come from different tables or passages of the source.

ROS1-G2032R, sequence (P08922 1945-2222 G2032R): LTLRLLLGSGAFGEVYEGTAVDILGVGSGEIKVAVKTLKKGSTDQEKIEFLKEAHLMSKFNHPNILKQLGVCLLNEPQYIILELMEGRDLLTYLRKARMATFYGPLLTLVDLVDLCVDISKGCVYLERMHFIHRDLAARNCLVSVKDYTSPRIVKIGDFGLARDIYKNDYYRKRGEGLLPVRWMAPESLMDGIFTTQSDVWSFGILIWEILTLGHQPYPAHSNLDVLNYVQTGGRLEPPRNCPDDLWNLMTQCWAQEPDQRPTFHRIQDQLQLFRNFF
Ba/F3 EML4-ALK v1 I1171N, sequence (Q9UM73 other isoform, or with tags, fused parts or gaps I1171N): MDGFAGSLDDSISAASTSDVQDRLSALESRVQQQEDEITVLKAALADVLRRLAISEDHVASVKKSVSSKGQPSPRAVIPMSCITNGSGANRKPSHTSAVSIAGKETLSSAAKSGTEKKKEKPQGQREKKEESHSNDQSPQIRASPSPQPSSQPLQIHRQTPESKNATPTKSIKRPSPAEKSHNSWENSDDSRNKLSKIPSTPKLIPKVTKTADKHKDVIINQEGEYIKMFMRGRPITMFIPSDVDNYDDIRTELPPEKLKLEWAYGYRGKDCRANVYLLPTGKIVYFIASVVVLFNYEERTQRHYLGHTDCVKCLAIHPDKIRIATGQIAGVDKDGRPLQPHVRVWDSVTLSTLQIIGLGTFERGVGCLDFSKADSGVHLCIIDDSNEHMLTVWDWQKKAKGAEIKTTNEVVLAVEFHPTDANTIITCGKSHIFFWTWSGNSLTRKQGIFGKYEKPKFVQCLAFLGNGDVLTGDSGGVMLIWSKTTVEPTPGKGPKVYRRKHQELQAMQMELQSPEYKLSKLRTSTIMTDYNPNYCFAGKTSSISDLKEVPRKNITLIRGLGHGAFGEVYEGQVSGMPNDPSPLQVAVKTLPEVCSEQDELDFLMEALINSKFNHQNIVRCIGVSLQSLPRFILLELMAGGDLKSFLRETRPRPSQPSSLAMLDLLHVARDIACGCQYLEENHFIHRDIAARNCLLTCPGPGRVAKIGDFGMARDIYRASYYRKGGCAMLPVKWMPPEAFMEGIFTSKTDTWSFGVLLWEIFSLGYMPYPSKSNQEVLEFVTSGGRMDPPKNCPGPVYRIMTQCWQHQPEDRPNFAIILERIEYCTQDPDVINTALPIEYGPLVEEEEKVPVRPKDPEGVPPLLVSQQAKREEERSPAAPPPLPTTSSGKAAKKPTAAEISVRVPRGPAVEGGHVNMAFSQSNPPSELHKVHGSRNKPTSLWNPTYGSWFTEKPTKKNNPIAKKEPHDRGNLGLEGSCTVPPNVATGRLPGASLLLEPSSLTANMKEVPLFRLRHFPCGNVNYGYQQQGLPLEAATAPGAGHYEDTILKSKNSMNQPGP
Ba/F3 ETV6-TRKB, sequence (Q16620 32-822 limits assumed, change not shown): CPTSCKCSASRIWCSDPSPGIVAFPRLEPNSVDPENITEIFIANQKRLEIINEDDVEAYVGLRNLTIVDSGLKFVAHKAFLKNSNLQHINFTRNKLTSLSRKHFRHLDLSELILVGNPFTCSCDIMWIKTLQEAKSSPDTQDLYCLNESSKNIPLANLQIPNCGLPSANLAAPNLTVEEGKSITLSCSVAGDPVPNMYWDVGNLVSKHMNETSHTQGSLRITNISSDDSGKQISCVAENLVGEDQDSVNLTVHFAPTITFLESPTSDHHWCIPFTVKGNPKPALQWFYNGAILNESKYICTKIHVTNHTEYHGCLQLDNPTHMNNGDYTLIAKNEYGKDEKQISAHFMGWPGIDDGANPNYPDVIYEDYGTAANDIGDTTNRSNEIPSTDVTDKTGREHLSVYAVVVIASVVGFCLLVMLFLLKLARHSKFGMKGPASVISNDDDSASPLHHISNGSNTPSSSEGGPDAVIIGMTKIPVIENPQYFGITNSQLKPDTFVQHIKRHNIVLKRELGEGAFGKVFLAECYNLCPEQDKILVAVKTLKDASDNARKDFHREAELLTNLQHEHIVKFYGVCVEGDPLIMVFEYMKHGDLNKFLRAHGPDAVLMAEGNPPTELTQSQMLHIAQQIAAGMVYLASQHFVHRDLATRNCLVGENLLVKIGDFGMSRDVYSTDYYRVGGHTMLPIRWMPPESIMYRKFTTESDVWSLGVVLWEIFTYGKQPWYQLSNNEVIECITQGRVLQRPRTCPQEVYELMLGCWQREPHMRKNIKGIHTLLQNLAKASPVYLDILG
ALK I1171N/D1203N, sequence (Q9UM73 1116-1392 I1171N/D1203N): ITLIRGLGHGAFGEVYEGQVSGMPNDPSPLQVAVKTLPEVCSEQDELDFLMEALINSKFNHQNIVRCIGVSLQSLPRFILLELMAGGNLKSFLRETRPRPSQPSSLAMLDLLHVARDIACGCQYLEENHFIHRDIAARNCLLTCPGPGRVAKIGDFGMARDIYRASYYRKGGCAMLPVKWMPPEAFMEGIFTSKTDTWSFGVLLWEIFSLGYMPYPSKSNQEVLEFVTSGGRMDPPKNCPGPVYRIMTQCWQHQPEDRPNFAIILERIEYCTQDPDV
ROS1, sequence (P08922 1945-2222): as the sequence (P08922 1945-2222 G2032R) above, with R88G counted along it
Ba/F3 EML4-ALK v1 I1171N/D1203N, sequence (Q9UM73 other isoform, or with tags, fused parts or gaps I1171N/D1203N): as the sequence (Q9UM73 other isoform, or with tags, fused parts or gaps I1171N) above, with D642N counted along it
TRKB-wt, sequence (Q16620 538-807): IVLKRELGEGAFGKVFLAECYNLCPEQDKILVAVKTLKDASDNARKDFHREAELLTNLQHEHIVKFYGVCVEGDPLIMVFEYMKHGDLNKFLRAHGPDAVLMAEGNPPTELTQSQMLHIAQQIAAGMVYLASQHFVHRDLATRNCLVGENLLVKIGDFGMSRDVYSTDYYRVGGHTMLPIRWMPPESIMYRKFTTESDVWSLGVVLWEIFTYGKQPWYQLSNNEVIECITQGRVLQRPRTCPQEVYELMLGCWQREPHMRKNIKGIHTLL

As to `CCn1nc(C(=O)N(C)C)c2c1-c1cnc(N)c(c1)O[C@H](C)c1cc(F)ccc1-c1nn(C)cc1C2` [Example 7, N,N-dimethyl-(R)-22-amino-3-ethyl-16-fluoro-10-methyl-19-methyl-20-oxa-3,4,10,11,23-pentaazapentacyclo[19.3.1.0^2,6.0^8,12.0^13,18]pentacosa-1(24),2(6),4,8,11,13,15,17.21(25),22-decaene-5-carboxamide], the pIC50 in assay [1] is 7.30 to 10.00; in assay [2] it was 7.30 to 10.00; in assay [4] (setting [9]), 6.30 to 7.30. Also, the “ETV6-TRKB / EML4-ALK v1 I1171N/D1203N” value in assay [1] (setting [8]) is on record as “C (bin C for moderate selectivity, ratio≥1 but<10)”. For the same compound, the “ETV6-TRKB / EML4-ALK v1 I1171N” value in assay [2] is given as “B (bin B for high selectivity, ratio≥10-fold but<30)”. In addition, the pKi in assay [3], in assay [5], in assay [6] and in assay [7] was more than 7.30 each time.
With `C[C@H]1Oc2cc(cnc2N)-c2c(c(C(=O)N(C)C)nn2CC2CC2)Cc2cn(C)nc2-c2ccc(F)cc21` [Example 8, N,N-dimethyl-(R)-22-amino-3-(cyclopropylmethyl)-16-fluoro-10-methyl-19-methyl-20-oxa-3,4,10,11,23-pentaazapentacyclo[19.3.1.0^2,^6.0^8,^12.0^13,^18]pentacosa-1(24),2(6),4,8,11,13,15, 17,21(25),22-decaene-5-carboxamide], the results for the negative logarithm of the IC50 (pIC50) in assay [1], in assay [2] and in assay [4] (setting [9]) were 7.30 to 10.00, 7.30 to 10.00 and less than 6.30, respectively. The “ETV6-TRKB / EML4-ALK v1 I1171N/D1203N” value in assay [1] (setting [8]) is “A (bin A for very high selectivity, ratio≥30-fold)”. In assay [2], the “ETV6-TRKB / EML4-ALK v1 I1171N” value is recorded as “A (bin A for very high selectivity, ratio≥30-fold)”. The pKi was more than 7.30 in assay [3], more than 7.30 in assay [5], 6.30 to 7.30 in assay [6] and more than 7.30 in assay [7].
With `C[C@H]1Oc2cc(cnc2N)-c2c(c(C(=O)N3CCC3)nn2CC2CC2)Cc2cn(C)nc2-c2ccc(F)cc21` [Example 9, {(R)-22-amino-3-(cyclopropylmethyl)-16-fluoro-10-methyl-19-methyl-20-oxa-3,4,10,11,23-pentaazapentacyclo[19.3.1.0^2,^6.0^8,^12.0^13,^18]pentacosa-1(24),2(6),4,8,11,13,15,17,21(25),22-decaen-5-yl}(1-azetidinyl)methanone], the negative-log IC50 (pIC50) in assay [1] was 6.30 to 7.30; in assay [4] (setting [9]), less than 6.30. Moreover, in assay [1] (setting [8]), the “ETV6-TRKB / EML4-ALK v1 I1171N/D1203N” value was “B (bin B for high selectivity, ratio≥10-fold but<30)”. The pKi in assay [3] was more than 7.30; in assay [5], more than 7.30; in assay [6], 6.30 to 7.30; in assay [7], more than 7.30.
In the case of `C[C@H]1Oc2cc(cnc2N)-c2c(C#N)nn(C(=O)N(C)C)c2Cc2cccnc2-c2ccc(F)cc21` [Example 27, N,N-dimethyl-(R)-23-amino-3-cyano-17-fluoro-20-methyl-21-oxa-4,5,12,24-tetraazapentacyclo[20.3.1.0^2,^6.0^8,^13.0^14,^19]hexacosa-1(25),2(6),3,8(13),9,11,14,16,18,22(26),23-undecaene-5-carboxamide], the pIC50 in assay [1] was 7.30 to 10.00; in assay [2] it was 7.30 to 10.00; in assay [4] (read-out: ETV6-TRKB IC50; Ba/F3 stable cells, 72 hours, CellTiter-Glo) it was 6.30 to 7.30. The “ETV6-TRKB / EML4-ALK v1 I1171N/D1203N” value in assay [1] (setting [8]) is “A (bin A for very high selectivity, ratio≥30-fold)”. In assay [2], the “ETV6-TRKB / EML4-ALK v1 I1171N” value is recorded as “A (bin A for very high selectivity, ratio≥30-fold)”. The pKi in assay [3], in assay [5], in assay [6] and in assay [7] was more than 7.30 throughout.
As for `C[C@H]1Oc2cc(cnc2N)-c2c(nn(C)c2C#N)C(=O)c2cccnc2-c2ccc(F)cc21` [Example 49, (R)-23-amino-17-fluoro-4-methyl-20-methyl-7-oxo-21-oxa-4,5,12,24-tetraazapentacyclo[20.3.1.0^2,6.0^8,13.0^14,19]hexacosa-1(25),2,5,8(13),9,11.14,16,18,22(26),23-undecaene-3-carbonitrile], the pIC50 in assay [1] was 7.30 to 10.00; in assay [2] it was 7.30 to 10.00; in assay [4] (setting [9]), 6.30 to 7.30. Besides, the “ETV6-TRKB / EML4-ALK v1 I1171N/D1203N” value in assay [1] (setting [8]) is “A (bin A for very high selectivity, ratio≥30-fold)”. Further, the “Selectivity for Ba/F3 EML4-ALK v1 I1171N-D1203N IC50 over Ba/F3 ETV6-TRKB IC50” value in assay [1] (TRKB selectivity, ratio of Ba/F3 IC50 values, Table 6 bins) was “AA (bin AA for the selectivity with the ratio≥30-fold)”. Further, the “ETV6-TRKB / EML4-ALK v1 I1171N” value in assay [2] is on record as “A (bin A for very high selectivity, ratio≥30-fold)”. For the same compound, the pKi in assay [3] was more than 7.30; in assay [5], 6.30 to 7.30; in assay [6] it was 6.30 to 7.30; in assay [7], more than 7.30.
Take `Cc1nc2c(s1)Cc1c(c(C#N)nn1C(=O)N(C)C)-c1cnc(N)c(c1)O[C@H](C)c1cc(F)ccc1-2` [Example 58, N,N-dimethyl-(R)-22-amino-3-cyano-16-fluoro-10,19-dimethyl-20-oxa-9-thia-4,5,11,23-tetraazapentacyclo[19.3.1.0^2,^6.0^8,^12.0^13,^18]pentacosa-1(24),2(6),3,8(12),10,13,15,17,21(25),22-decaene-5-carboxamide]: the pIC50 in assay [1] was 6.30 to 7.30; in assay [2] it was 7.30 to 10.00; in assay [4] (setting [9]) it was less than 6.30. Besides, the “ETV6-TRKB / EML4-ALK v1 I1171N/D1203N” value in assay [1] (setting [8]) is recorded as “C (bin C for moderate selectivity, ratio≥1 but<10)”. Further, the “ETV6-TRKB / EML4-ALK v1 I1171N” value in assay [2] is on record as “A (bin A for very high selectivity, ratio≥30-fold)”. The pKi in assay [3] was more than 7.30; in assay [5] it was more than 7.30; in assay [6], 6.30 to 7.30; in assay [7], more than 7.30.

The term pIC50 denotes the IC50 on a negative log10 scale, so that one unit is a factor of ten. In general, pKi refers to the negative decadic logarithm of the Ki, by convention in mol/L.
